pIC50: −log10 of the molar value.
Target: Nanoluciferase-BRD9 fusion protein (3×FLAG-NLuc-BRD9) in SYO-1 cells (Homo sapiens (Human), UniProt Q9H8M2)
Assay: SYO1 BRD9 NanoLuc degradation assay
Assay type: cell-based
Experimental: Procedure: A stable SYO-1 cell line expressing 3×FLAG-NLuc-BRD9 was generated. On day 0 cells were seeded in 30 μL media into each well of 384-well cell culture plates. The seeding density was 8000 cells/well. On day 1, cells were treated with 30 nL DMSO or 30 nL of 3-fold serially DMSO-diluted compounds (10 points in duplicates with 1 μM as final top dose). Subsequently plates were incubated for 6 hours in a standard tissue culture incubator and equilibrated at room temperature for 15 minutes. Nanoluciferase activity was measured by adding 15 μL of freshly prepared Nano-Glo Luciferase Assay Reagent (Promega N1130), shaking the plates for 10 minutes and reading the bioluminescence using an EnVision reader.
Results: The Inhibition % was calculated using the following formula: % Inhibition=100×(LumHC−LumSample)/(LumHC−LumLC). DMSO treated cells are employed as High Control (HC) and 1 μM of a known BRD9 degrader standard treated cells are employed as Low Control (LC).

[1] = SYO-1 cells expressing 3×FLAG-NLuc-BRD9, 6 hours incubation, top dose 1 μM

Nanoluciferase-BRD9 fusion protein (3×FLAG-NLuc-BRD9) in SYO-1 cells, sequence (Q9H8M2 whole entry, the tested form may be a part): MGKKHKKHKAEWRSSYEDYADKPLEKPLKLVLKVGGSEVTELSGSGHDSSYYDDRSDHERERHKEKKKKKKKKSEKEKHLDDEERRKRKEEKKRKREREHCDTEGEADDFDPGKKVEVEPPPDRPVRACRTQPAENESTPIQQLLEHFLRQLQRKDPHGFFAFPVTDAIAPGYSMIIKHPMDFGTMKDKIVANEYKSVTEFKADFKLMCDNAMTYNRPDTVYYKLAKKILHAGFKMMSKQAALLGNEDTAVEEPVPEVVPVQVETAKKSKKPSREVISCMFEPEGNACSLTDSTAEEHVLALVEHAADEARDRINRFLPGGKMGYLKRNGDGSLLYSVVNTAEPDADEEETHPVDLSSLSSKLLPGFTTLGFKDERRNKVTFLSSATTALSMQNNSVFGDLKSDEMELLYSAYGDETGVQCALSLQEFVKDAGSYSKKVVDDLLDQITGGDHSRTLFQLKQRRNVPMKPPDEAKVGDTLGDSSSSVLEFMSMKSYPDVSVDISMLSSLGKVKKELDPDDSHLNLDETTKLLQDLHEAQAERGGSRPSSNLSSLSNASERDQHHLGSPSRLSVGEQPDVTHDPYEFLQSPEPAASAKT

Row | SMILES | pIC50 [1] | pIC50 (SYO-1 cells, 6 hours, Table 6A) | further results
1 | CNC(=O)N1CCc2c(-c3cc(OC)c(CN4CC5(CC(N)C5)C4)c(OC)c3)cn(C)c(=O)c2C1 [Compound B22] | ≤ 6.00 | – | –
2 | CNC(=O)N1CCc2c(-c3cc(OC)c(CN4CCN(C(=O)CCCOc5cccc6c5C(=O)N(C5CCC(=O)NC5=O)C6=O)CC4)c(OC)c3)cn(C)c(=O)c2C1 (stereo not drawn) [Compound D1, 5-(4-[[4-(4-[[2-(2,6-dioxopiperidin-3-yl)-1,3-dioxoisoindol-4-yl]oxy]butanoyl)piperazin-1-yl]methyl]-3,5-dimethoxyphenyl)-N,7-dimethyl-8-oxo-3,4-dihydro-1H-2,7-naphthyridine-2-carboxamide] | – | < 8.00 | –
3 | CNC(=O)N1CCc2c(-c3cc(OC)c(CN4CCN(C(=O)COc5cccc6c5C(=O)N(C5CCC(=O)NC5=O)C6=O)CC4)c(OC)c3)cn(C)c(=O)c2C1 (stereo not drawn) [Compound D2, 5-(4-[[4-(2-[[2-(2,6-dioxopiperidin-3-yl)-1,3-dioxoisoindol-4-yl]oxy]acetyl)piperazin-1-yl]methyl]-3,5-dimethoxyphenyl)-N,7-dimethyl-8-oxo-3,4-dihydro-1H-2,7-naphthyridine-2-carboxamide] | – | < 8.00 | –
4 | CNC(=O)N1CCc2c(-c3cc(OC)c(CN4CCC5(CC4)CN(C(=O)CCCCOc4cccc6c4C(=O)N(C4CCC(=O)NC4=O)C6=O)CCO5)c(OC)c3)cn(C)c(=O)c2C1 (stereo not drawn) [Compound D4, 5-(4-[[4-(5-[[2-(2,6-dioxopiperidin-3-yl)-1,3-dioxoisoindol-4-yl]oxy]pentanoyl)-1-oxa-4,9-diazaspiro[5.5]undecan-9-yl]methyl]-3,5-dimethoxyphenyl)-N,7-dimethyl-8-oxo-3,4-dihydro-1H-2,7-naphthyridine-2-carboxamide formic acid] | – | < 8.00 | –
5 | COc1cc(-c2cn(C)c(=O)c3c2CCN(C(=O)NCCOCCOCCNc2cccc4c2CN(C2CCC(=O)NC2=O)C4=O)C3)cc(OC)c1CN(C)C (stereo not drawn) [Compound D5, 5-[4-[(dimethylamino)methyl]-3,5-dimethoxyphenyl]-N-[2-[2-(2-[[2-(2,6-dioxopiperidin-3-yl)-1-oxo-3H-isoindol-4-yl]amino]ethoxy)ethoxy]ethyl]-7-methyl-8-oxo-3,4-dihydro-1H-2,7-naphthyridine-2-carboxamide formic acid] | – | < 6.00 | –
6 | COc1cc(-c2cn(C)c(=O)c3c2CCN(C(=O)NCCS(=O)(=O)CCNc2cccc4c2C(=O)N(C2CCC(=O)NC2=O)C4=O)C3)cc(OC)c1CN(C)C (stereo not drawn) [Compound D7, 5-[4-[(dimethylamino)methyl]-3,5-dimethoxyphenyl]-N-[2-(2-[[2-(2,6-dioxopiperidin-3-yl)-1,3-dioxoisoindol-4-yl]amino]ethanesulfonyl)ethyl]-7-methyl-8-oxo-3,4-dihydro-1H-2,7-naphthyridine-2-carboxamide formic acid] | – | – | DC50 (SYO-1 cells, 6 hours, Table 6A, read-out: SYO1 BRD9-NanoLuc degradation IC50): > 10 nM
7 | COc1cc(-c2cn(C)c(=O)c3c2CCN(C(=O)NCCCCCCCCNC(=O)COc2cccc4c2C(=O)N(C2CCC(=O)NC2=O)C4=O)C3)cc(OC)c1CN(C)C (stereo not drawn) [Compound D10, 5-(4-((dimethylamino)methyl)-3,5-dimethoxyphenyl)-N-(8-(2-((2-(2,6-dioxopiperidin-3-yl)-1,3-dioxoisoindolin-4-yl)oxy)acetamido)octyl)-7-methyl-8-oxo-3,4,7,8-tetrahydro-2,7-naphthyridine-2 (1H)-carboxamide formic acid] | – | < 7.00 | –
8 | CNC(=O)N1CCc2c(-c3cc(OC)c(CN4CC(NC(=O)CCCCCOc5cccc6c5C(=O)N(C5CCC(=O)NC5=O)C6=O)C4)c(OC)c3)cn(C)c(=O)c2C1 (stereo not drawn) [Compound D16, 5-(4-[[3-(6-[[2-(2,6-dioxopiperidin-3-yl)-1,3-dioxoisoindol-4-yl]oxy]hexanamido)azetidin-1-yl]methyl]-3,5-dimethoxyphenyl)-N,7-dimethyl-8-oxo-3,4-dihydro-1H-2,7-naphthyridine-2-carboxamide formic acid] | – | < 8.00 | –
9 | CNC(=O)N1CCc2c(-c3cc(OC)c(CN(C)C(=O)CCCCCOc4cccc5c4C(=O)N(C4CCC(=O)NC4=O)C5=O)c(OC)c3)cn(C)c(=O)c2C1 (stereo not drawn) [Compound D25, 5-[4-[(6-[[2-(2,6-dioxopiperidin-3-yl)-1,3-dioxoisoindol-4-yl]oxy]-N-methylhexanamido)methyl]-3,5-dimethoxyphenyl]-N,7-dimethyl-8-oxo-3,4-dihydro-1H-2,7-naphthyridine-2-carboxamide] | – | > 8.00 | –
10 | CNC(=O)N1CCc2c(-c3cc(OC)c(CN4CCN(CC5CCN(c6ccc7c(c6)C(=O)N(C6CCC(=O)NC6=O)C7)CC5)CC4)c(OC)c3)cn(C)c(=O)c2C1 (stereo not drawn) [Compound D40] | > 8.00 | – | –
11 | CNC(=O)N1CCc2c(-c3cc(OC)c(CN4C[C@@H](C)N(CCC5CCN(c6ccc7c(c6)C(=O)N(C6CCC(=O)NC6=O)C7=O)CC5)[C@@H](C)C4)c(OC)c3)cn(C)c(=O)c2C1 (stereo partly drawn) [Compound D42] | > 8.00 | – | –
12 | [2H]C([2H])([2H])n1cc(-c2cc(OC)c(CN3CCN(CCC4CCN(c5ccc6c(c5)C(=O)N(C5CCC(=O)NC5=O)C6=O)CC4)CC3)c(OC)c2)c2c(c1=O)CN(C(=O)NC)CC2 (stereo not drawn) [Compound D45] | > 8.00 | – | –

More lines, main results first:

Row | pIC50 [1] | pIC50 (SYO-1 cells, 6 hours, Table 6A) | SMILES | further results
13 | ≤ 6.00 | – | CNC(=O)N1CCc2c(-c3cc(OC)c(CN4CCN(C5CNC5)CC4)c(OC)c3)cn(C)c(=O)c2C1 [Compound B23] | –
14 | – | < 7.00 | CNC(=O)N1CCc2c(-c3cc(OC)c(CN4CCC5(CC4)CN(C(=O)CCCOc4cccc6c4C(=O)N(C4CCC(=O)NC4=O)C6=O)CCO5)c(OC)c3)cn(C)c(=O)c2C1 (stereo not drawn) [Compound D3, 5-(4-[[4-(4-[[2-(2,6-dioxopiperidin-3-yl)-1,3-dioxoisoindol-4-yl]oxy]butanoyl)-1-oxa-4,9-diazaspiro[5.5]undecan-9-yl]methyl]-3,5-dimethoxyphenyl)-N,7-dimethyl-8-oxo-3,4-dihydro-1H-2,7-naphthyridine-2-carboxamide] | –
15 | – | < 7.00 | COc1cc(-c2cn(C)c(=O)c3c2CCN(C(=O)NCCN(C)CCNc2cccc4c2C(=O)N(C2CCC(=O)NC2=O)C4=O)C3)cc(OC)c1CN(C)C (stereo not drawn) [Compound D6, 5-[4-[(dimethylamino)methyl]-3,5-dimethoxyphenyl]-N-[2-[(2-[[2-(2,6-dioxopiperidin-3-yl)-1,3-dioxoisoindol-4-yl]amino]ethyl)(methyl)amino]ethyl]-7-methyl-8-oxo-3,4-dihydro-1H-2,7-naphthyridine-2-carboxamide] | –
16 | – | < 7.00 | COc1cc(-c2cn(C)c(=O)c3c2CCN(C(=O)NCCN(C)CCNC(=O)COc2cccc4c2C(=O)N(C2CCC(=O)NC2=O)C4=O)C3)cc(OC)c1CN(C)C (stereo not drawn) [Compound D8, N-(2-[[2-(5-[4-[(dimethylamino)methyl]-3,5-dimethoxyphenyl]-7-methyl-8-oxo-3,4-dihydro-1H-2,7-naphthyridine-2-carbonylamino)ethyl](methyl)amino]ethyl)-2-[[2-(2,6-dioxopiperidin-3-yl)-1,3-dioxoisoindol-4-yl]oxy]acetamide formic acid] | –
17 | – | > 8.00 | COc1cc(-c2cn(C)c(=O)c3c2CCN(C(=O)NCCCCCCCCNc2ccc4c(c2)C(=O)N(C2CCC(=O)NC2=O)C4=O)C3)cc(OC)c1CN(C)C (stereo not drawn) [Compound D9, 5-(4-((dimethylamino)methyl)-3,5-dimethoxyphenyl)-N-(8-((2-(2,6-dioxopiperidin-3-yl)-1,3-dioxoisoindolin-5-yl)amino)octyl)-7-methyl-8-oxo-3,4,7,8-tetrahydro-2,7-naphthyridine-2 (1H)-carboxamide formic acid] | –
18 | – | < 8.00 | COc1cc(-c2cn(C)c(=O)c3c2CCN(C(=O)NCCCCCNc2cccc4c2C(=O)N(C2CCC(=O)NC2=O)C4=O)C3)cc(OC)c1CN(C)C (stereo not drawn) [Compound D11, 5-(4-((dimethylamino)methyl)-3,5-dimethoxyphenyl)-N-(5-((2-(2,6-dioxopiperidin-3-yl)-1,3-dioxoisoindolin-4-yl)amino)pentyl)-7-methyl-8-oxo-3,4,7,8-tetrahydro-2,7-naphthyridine-2 (1H)-carboxamide formic acid] | –
19 | – | < 6.00 | CNC(=O)N1CCc2c(-c3cc(OC)c(CN(C)CC(=O)NCCOCCOc4cccc5c4C(=O)N(C4CCC(=O)NC4=O)C5=O)c(OC)c3)cn(C)c(=O)c2C1 (stereo not drawn) [Compound D13, 5-(4-[[([[2-(2-[[2-(2,6-dioxopiperidin-3-yl)-1,3-dioxoisoindol-4-yl]oxy]ethoxy)ethyl]carbamoyl]methyl)(methyl)amino]methyl]-3,5-dimethoxyphenyl)-N,7-dimethyl-8-oxo-3,4-dihydro-1H-2,7-naphthyridine-2-carboxamide] | –
20 | > 8.00 | – | CNC(=O)N1CCc2c(-c3cc(OC)c(CN4CCN(CC5CCN(c6ccc7c(c6)CN(C6CCC(=O)NC6=O)C7=O)CC5)CC4)c(OC)c3)cn(C)c(=O)c2C1 (stereo not drawn) [Compound D39] | –
21 | > 8.00 | – | CNC(=O)N1Cc2c(c(-c3cc(OC)c(CN4CCN(CCC5CCN(c6ccc7c(c6)C(=O)N(C6CCC(=O)NC6=O)C7=O)CC5)CC4)c(OC)c3)cn(C)c2=O)CC1C (stereo not drawn) [Compound D41] | –
22 | > 8.00 | – | COCCNC(=O)N1CCc2c(-c3cc(OC)c(CN4CCN(CCC5CCN(c6ccc7c(c6)C(=O)N(C6CCC(=O)NC6=O)C7=O)CC5)CC4)c(OC)c3)cn(C)c(=O)c2C1 (stereo not drawn) [Compound D43] | –
23 | > 8.00 | – | [2H]C([2H])([2H])n1cc(-c2cc(OC)c(CN3CCC(CN4CCC5(CC4)CC(Oc4ccc6c(c4)C(=O)N(C4CCC(=O)NC4=O)C6=O)C5)CC3)c(OC)c2)c2c(c1=O)CN(C(=O)NC)CC2 (stereo not drawn) [Compound D44] | –
24 | > 8.00 | – | COc1cc(-c2cn(C)c(=O)c3c2CCN(C(=O)NCC(F)F)C3)cc(OC)c1CN1CCN(CCC2CCN(c3ccc4c(c3)C(=O)N(C3CCC(=O)NC3=O)C4=O)CC2)CC1 (stereo not drawn) [Compound D46] | –

Reference: patent publication US12384776B2, “Compounds and uses thereof” (Foghorn Therapeutics Inc., priority 2019, dated 2025)
